{
  "source": "patent US5028613A",
  "about": "“Novel pyrroloquinoline alkaloids and methods of use” (Repligen Corporation, priority 1990, dated 1991)",
  "key": {"[1]": {"test_system": "C. albicans", "assay": "C. albicans MIC (microtiter broth dilution)", "type": "cell-based, Candida albicans (ATCC strain 44506)", "settings": "Candida albicans, read-out: C. albicans MIC", "experimental": "(§1) All media were autoclaved at 121° C. for 15 minutes. Candida albicans: C. albicans (ATCC strain 44506) was grown on Sabouraud dextrose agar to produce single colonies, one of which was used to inoculate Sabouraud dextrose broth. The broth was incubated at 37° C. with shaking at 200 rpm for 18 hours. The resultant culture was brought to 10% (v/v) glycerol, frozen at -80° C., and used as the inoculum for the anti-Candida assay. Aspergillus nidulans: A. nidulans (ATCC strain 36321) was grown from a spore stock on the surface of a YAG plate (YAG: yeast extract 0.5%; glucose 2%; agar 2%) at 30° C. until the colony sporulated; at this point the colony was green (usually within one week). Spores were harvested by washing with 0.1% (v/v) TRITON™ X-100. Spores were then washed with distilled water before freezing at -80° C. in the presence of 10% (v/v) glycerol. Bacillus subtilis: Standard spore stocks (ATCC strain 6633) were purchased from Difco (#0453-36-0). Escherichia coli: The BMR strain was used. This was grown overnight with shaking at 37° C. in nutrient broth and frozen in 1 mL aliquots in the presence of 10% (v/v) glycerol at -80° C. Pseudomonas aeruginosa: (ATCC strain 27853) Grown and stored as described for E. coli.\nTwo-fold dilutions of the drug/extract were prepared in 50 μL volumes of a suitable solvent using 96-well microtiter plates. A 25% mixture of MeOH in water was generally used; however, EtOH, 5% EtOAc in EtOH, DMSO, or other compatible solvents could be substituted if necessary. In a separate 96-well plate, 35 μL volumes of either Sabouraud dextrose broth or RPMI-1640 were placed in each well. The drug/extract (5 μL) was then transferred to the broth using a 12-place pipettor. An inoculum of C. albicans in the appropriate medium was added to give a cell density of 1000 cells/mL and a total volume of 50 μL. […] SDB plates were incubated at 37° C. overnight, RPMI-1640 plates were incubated at 37° C. in a humidified atmosphere of 10% CO2."}, "[2]": {"test_system": "HT29 cell line", "assay": "HT29 cell assay (analogous MTT procedure)", "type": "cell-based", "settings": "Homo sapiens, HT-29; procedure analogous to P388", "experimental": "(§2) To assess the antiproliferative effects of agents against P388 cells, 200 μl cultures (96-well tissue culture plates, Nunc, Denmark) were established at 1×10^5 cells/ml in drug-free medium containing agents at various concentrations. After 48 hour exposures, P388 cells were enumerated using 3-[4,5-dimethylthiazol-2-yl]-2,5-diphenyltetrazolium bromide (MTT) as described below.\n(§3) To quantitate the effects of agents on cell proliferation, 75 μl warm growth medium containing 5 mg/ml MTT was added to each well. Cultures were returned to the incubator and left undisturbed for 90 minutes. To spectrophotometrically quantitate formation of reduced formazan, plates were centrifuges (900 g, 5 minutes), culture fluids were removed by aspiration, and 200 μl of acidified isopropanol (2 ml concentrated HCl/L isopropanol) added per well. The absorbance of the resulting solutions were measured at 570 nm with a plate reader (MR700 Microplate Reader, Dynatech Laboratories, Chantilly, Va.). […] A linear relationship between P388 cell number and formazan production was found over the range of cell densities observed in this study.\n(§4) Analogous procedures were followed for the A549 and HT29 cell lines."}, "[3]": {"test_system": "P388 murine leukemia cells", "assay": "P388 mouse leukemia cell antiproliferative assay (MTT)", "type": "cell-based", "settings": "48 hour exposure", "experimental": "P388 murine leukemia cells obtained from Dr. J. Mayo, National Cancer Institute, Bethesda, Md., were maintained in Roswell Park Memorial Institute medium 1640 (RPMI-1640) supplemented with 10% horse serum and cultured in plastic tissue culture flasks and kept in an incubator at 37° C. in humidified air containing 5% CO2. Antibiotic-free stock cultures of P388 cells were subcultured to 10^5 cells/ml by dilutions in fresh growth medium at 2 to 5 day intervals.\nas §2, §3"}, "[4]": {"test_system": "A549 cell line", "assay": "A549 cell assay (analogous MTT procedure)", "type": "cell-based", "settings": "Homo sapiens, procedure analogous to P388", "experimental": "as §2, §3, §4"}, "[5]": {"test_system": "B. subtilis", "assay": "B. subtilis growth inhibition (disc diffusion assay)", "type": "cell-based, Bacillus subtilis (ATCC strain 6633)", "settings": "result in words", "experimental": "as §1, with “This was grown overnight with shaking at 37° C. in nutrient broth and frozen in 1 mL aliquots in the presence of 10% (v/v) glycerol at -80° C. Pseudomonas aeruginosa: (ATCC strain 27853) Grown and stored as described for E. coli.” left out\nPaper discs (6.35 mm) were impregnated with the test substance and allowed to dry. […] Plates were incubated overnight (C. albicans, B. subtilis, E. coli, and P. aeruginosa 37° C.; and A. nidulans 30° C.) after which time the zones of growth inhibition could be read. These are expressed as the diameter of the zone in millimeters. […]"}, "[6]": {"settings": "lowest concentration completely inhibiting growth"}},
  "note": "Where two headings read alike, the source gives them in different places.",
  "data": [
    {"molecule": "CSc1c2c3c(n1C)C(=O)C(N)=CC3=NCC2", "note": "[Isobatzelline B]", "values": [
      {"measurement": "MIC", "setting": "[1]; [6]", "result": 25, "unit": "µg/mL"},
      {"measurement": "IC50", "setting": "[2]", "result": 2.5, "unit": "µg/mL"},
      {"measurement": "IC50", "setting": "[3]", "result": 2.6, "unit": "µg/mL"},
      {"measurement": "IC50", "setting": "[4]", "result": 2.8, "unit": "µg/mL"}
    ]},
    {"molecule": "Cn1cc2c3c1C(=O)C(N)=C(Cl)C3=NCC2", "note": "[Isobatzelline C]", "values": [
      {"measurement": "MIC", "setting": "[1]", "result": 50, "unit": "µg/mL"},
      {"measurement": "IC50", "setting": "[2]", "result": 10, "unit": "µg/mL"},
      {"measurement": "IC50", "setting": "[3]", "result": 12.6, "unit": "µg/mL"},
      {"measurement": "IC50", "setting": "[4]", "result": "> 20", "unit": "µg/mL"}
    ]},
    {"molecule": "CSc1c2c3c(n1C)C(=O)C(N)=C(Cl)C3=NCC2", "note": "[Isobatzelline A]", "values": [
      {"measurement": "MIC", "setting": "[1]; [6]", "result": 3.1, "unit": "µg/mL"},
      {"measurement": "inhibition of the growth of B. subtilis", "setting": "[5]", "result": "inhibit the growth of B. subtilis"},
      {"measurement": "IC50", "setting": "[2]", "result": 0.44, "unit": "µg/mL"},
      {"measurement": "IC50", "setting": "[3]", "result": 0.42, "unit": "µg/mL"},
      {"measurement": "IC50", "setting": "[4]", "result": 0.07, "unit": "µg/mL"}
    ]},
    {"molecule": "CSc1c2ccnc3c2c(n1C)C(=O)C(N)=C3Cl", "note": "[Isobatzelline D]", "values": [
      {"measurement": "MIC", "setting": "[1]; [6]", "result": 25, "unit": "µg/mL"},
      {"measurement": "IC50", "setting": "[2]", "result": "> 20", "unit": "µg/mL"},
      {"measurement": "IC50", "setting": "[3]", "result": 20, "unit": "µg/mL"},
      {"measurement": "IC50", "setting": "[4]", "result": "> 20", "unit": "µg/mL"}
    ]}
  ]
}
